# In patent publication US4996211A, “Substituted dibenzocycloheptenimines” (Merck Sharp & Dohme Ltd., priority 1987, dated 1991):
# Counter-ions that a name gives are not always drawn.
# System: tonic seizures induced by N-methyl-DL-aspartic acid (NMDLA)
# Assay: Antagonism of NMDLA-induced tonic seizures in mice
# Type: in vivo, mouse (male Swiss-Webster)
# Details: Mus musculus, iv; i.v. 15 min before s.c. NMDLA (500 mg/kg); groups of 8 mice, observed 30 min; probit analysis
# Description: The compounds useful in this invention bind with a high affinity and in a reversible and saturable manner to membranes from rat brain cortex. In addition these compounds potently and selectively block responses to NMDA in a brain slice from rat cortex, and antagonise NMDA-induced seizures in the mouse.
# Compounds of the invention were examined for their ability to antagonise tonic seizures induced by N-methyl-DL-aspartic acid (NMDLA). Groups of 8 male Swiss-Webster mice (25-30 g) were injected intravenously with the test compound at various doses, 15 min before s.c. administration of NMDLA (500 mg/kg). […] ED50 values for the antagonism of the NMDLA induced tonic seizures were determined using probit analysis.
row,Structure (SMILES),ED50
1,"Cc1ccc2c(c1)C1(C)NC2Cc2ccccc21 (stereo not shown) [Example 1, 5,7-Dimethyl-10.11-dihydro-5H-dibenzo[a,d]cyclohepten-5,10-imine]",< 10 mg/kg
2,"Cc1ccc2c(c1)C1(C)NC(C2)c2ccccc21 (stereo not shown) [Example 2, 3.5-Dimethyl-10,11-dihYdro-5H-dibenzo[a,d]cyclohepten-5,10-imine]",< 10 mg/kg
3,"CC12NC(Cc3ccc(-c4ccccc4)cc31)c1ccccc12 (stereo not shown) [Example 6, 5-Methyl-3-phenyl-10,11-dihydro-5H-dibenzo-[a,d]cyclohepten-5,10-imine hydrochloride]",< 10 mg/kg
4,"CC12NC(Cc3ccc(CO)cc31)c1ccccc12 (stereo not shown) [Example 12, 3-HYdroxymethyl-5-methyl-10,11-dihydro-5H-dibenzo-[a,d]cyclohepten-5,10-imine]",< 10 mg/kg
